Data from publication PMC6050274, “Buparlisib is a brain penetrable pan-PI3K inhibitor” (Scientific Reports, 2018).

What was measured:
[1] = target: T1, murine P-gp (Abcb1a/Mdr1a) (Mus musculus, UniProt P21447); experiment: Concentration equilibrium transport assay (CETA), LLC-Mdr1a; format: in vitro ADME; conditions: 100 nM
T1 construct: expressed in transfected cells; host or cells: LLC-PK1 (LLC-Mdr1a)
Excerpt: (§1) Figure 1 Analysis of buparlisib substrate affinity for ABC transporters using in vitro transport assays. (A) The chemical structure of buparlisib. (B) A conventional transport assay (CTA) using LLC-PK1 cells in presence of zosuquidar to block endogenous (porcine) P-gp activity. […] (C) Concentration equilibrium transport assays (CETAs) using MDCK or LLC cells that overexpress murine BCRP, (Bcrp1), human BCRP, murine P-gp (Mdr1a) or human P-gp (MDR1). […] The P-gp inhibitor zosuquidar was used in all MDCK cell lines to inhibit endogenous P-gp activity and in LLC cell lines to validate possible P-gp-mediated translocations. […]
(§2) Conventional bidirectional transport assays (CTAs) and concentration equilibrium transport assays (CETAs) were performed as described previously. […] Transwell leakiness was determined as Carboxyl-[^14C]-inulin translocation exceeding 1.5% per hour and these wells were excluded from the analysis. […]
(§3) As described in detail before, CETA results were analysed with the General linear model repeated measures procedure of SPSS (v22; SPSS Inc, Chicago, IL)[25]. […] The standard error of the oral bioavailability was calculated using the formula below: SEF=F(SEAUCp.o./AUCp.o.)^2+(SEAUCi.v./AUCi.v.)^2 Buparlisib concentrations in WT and transporter knockout mice in vivo were compared using one-way analysis of variance followed by post hoc Bonferroni tests. […]

human P-gp (ABCB1/MDR1) = target: T2, human P-gp (ABCB1/MDR1) (Homo sapiens, UniProt P08183); experiment: Concentration equilibrium transport assay (CETA), LLC-MDR1; format: in vitro ADME; conditions: 100 nM
T2 construct: expressed in transfected cells; host or cells: LLC-PK1 (LLC-MDR1)
Excerpt: as §1, §2, §3

[2] = Brain and tissue penetration after i.v. administration in wildtype and P-gp/BCRP knockout mice; format: in vivo, FVB mice; conditions: 2 mg/kg i.v.
Experimental: To study whether P-gp and BCRP attenuate buparlisib brain penetration in vivo, we measured the brain and plasma concentration in wildtype (WT), Abcg2^−/−, Abcb1a/b^−/− and Abcb1a/b; Abcg2^−/− mice 1 hour after i.v. administration of 2 mg/kg buparlisib.
Figure 2 The impact of P-gp and BCRP on the brain and tissue penetration of buparlisib. Buparlisib was administered intravenously to wildtype, Abcg2^−/−, Abcb1a/b^−/− and Abcb1a/b;Abcg2^−/− mice at a dose of 2 mg/kg. One hour after injection, blood and tissues were collected for LC-MS/MS analysis. […] All data are represented as mean ± SD (n = 4).
The pharmacokinetics of buparlisib were analysed in WT, Abcg2^−/−, Abcb1a/b^−/− and Abcb1a/b; Abcg2^−/− FVB mice. All knockout mice strains have been developed within our institute[41]–[43]. For i.v. administration, buparlisib was dissolved in DMSO and injected at a dose of 2 mg/kg. For oral administration, buparlisib was formulated in DMSO:Cremophor EL:water (1:1:8 v/v/v) and administered at 1, 2 or 5 mg/kg as indicated. Tail vein bleeding was used to collect blood at intermediate time points, whereas at the last time point blood was drawn by cardiac puncture and various tissue were collected. Plasma was obtained from whole blood by centrifugation (5 min, 5,000 rpm, 4 °C). After weighing, tissues were homogenized using a FastPrep®-24 (MP-Biomedicals, NY) in 1% (w/v) bovine serum albumin in water. Buparlisib was extracted from plasma and tissue homogenate by liquid-liquid extraction with ethyl acetate using AZD8055 as an internal standard.
Buparlisib was measured in samples from in vitro transport assays and in vivo pharmacokinetic studies using an LC-MS/MS system comprised of an UltiMate 3000 LC Systems (Dionex, Sunnyvale, CA) and an API 4000 mass spectrometer (Sciex, Framingham, MA). Samples were run through a Securityguard C18 pre-column (Phenomenex, Utrecht, The Netherlands) prior to separation on a ZORBAX Extend-C18 column (Agilent, Santa Clara, CA). Elution was done using a in a 5 minute gradient from 20% to 95% B (mobile phase A was 0.1% HCOOH in water (v/v) and mobile phase B was methanol). 95% B was maintained for 3 min followed by re-equilibration at 20% B. Multiple reaction monitoring was performed at 411.3/367.2 (buparlisib) and 418.2/138.4 (AZD8055). Analyst® 1.6.2 software (AB Sciex; Foster City, CA) was used for system control and data analysis.
As described in detail before, CETA results were analysed with the General linear model repeated measures procedure of SPSS (v22; SPSS Inc, Chicago, IL)[25]. PK solver was used to determine pharmacokinetic parameters. The standard error of the oral bioavailability was calculated using the formula below: SEF=F(SEAUCp.o./AUCp.o.)^2+(SEAUCi.v./AUCi.v.)^2 Buparlisib concentrations in WT and transporter knockout mice in vivo were compared using one-way analysis of variance followed by post hoc Bonferroni tests. Statistical differences between the buparlisib PK parameters in male and female mice were calculated as Bonferroni corrected p-values using multiple Student’s t-tests. Differences were considered statistically significant when p < 0.05.

T1 sequence (P21447 whole entry): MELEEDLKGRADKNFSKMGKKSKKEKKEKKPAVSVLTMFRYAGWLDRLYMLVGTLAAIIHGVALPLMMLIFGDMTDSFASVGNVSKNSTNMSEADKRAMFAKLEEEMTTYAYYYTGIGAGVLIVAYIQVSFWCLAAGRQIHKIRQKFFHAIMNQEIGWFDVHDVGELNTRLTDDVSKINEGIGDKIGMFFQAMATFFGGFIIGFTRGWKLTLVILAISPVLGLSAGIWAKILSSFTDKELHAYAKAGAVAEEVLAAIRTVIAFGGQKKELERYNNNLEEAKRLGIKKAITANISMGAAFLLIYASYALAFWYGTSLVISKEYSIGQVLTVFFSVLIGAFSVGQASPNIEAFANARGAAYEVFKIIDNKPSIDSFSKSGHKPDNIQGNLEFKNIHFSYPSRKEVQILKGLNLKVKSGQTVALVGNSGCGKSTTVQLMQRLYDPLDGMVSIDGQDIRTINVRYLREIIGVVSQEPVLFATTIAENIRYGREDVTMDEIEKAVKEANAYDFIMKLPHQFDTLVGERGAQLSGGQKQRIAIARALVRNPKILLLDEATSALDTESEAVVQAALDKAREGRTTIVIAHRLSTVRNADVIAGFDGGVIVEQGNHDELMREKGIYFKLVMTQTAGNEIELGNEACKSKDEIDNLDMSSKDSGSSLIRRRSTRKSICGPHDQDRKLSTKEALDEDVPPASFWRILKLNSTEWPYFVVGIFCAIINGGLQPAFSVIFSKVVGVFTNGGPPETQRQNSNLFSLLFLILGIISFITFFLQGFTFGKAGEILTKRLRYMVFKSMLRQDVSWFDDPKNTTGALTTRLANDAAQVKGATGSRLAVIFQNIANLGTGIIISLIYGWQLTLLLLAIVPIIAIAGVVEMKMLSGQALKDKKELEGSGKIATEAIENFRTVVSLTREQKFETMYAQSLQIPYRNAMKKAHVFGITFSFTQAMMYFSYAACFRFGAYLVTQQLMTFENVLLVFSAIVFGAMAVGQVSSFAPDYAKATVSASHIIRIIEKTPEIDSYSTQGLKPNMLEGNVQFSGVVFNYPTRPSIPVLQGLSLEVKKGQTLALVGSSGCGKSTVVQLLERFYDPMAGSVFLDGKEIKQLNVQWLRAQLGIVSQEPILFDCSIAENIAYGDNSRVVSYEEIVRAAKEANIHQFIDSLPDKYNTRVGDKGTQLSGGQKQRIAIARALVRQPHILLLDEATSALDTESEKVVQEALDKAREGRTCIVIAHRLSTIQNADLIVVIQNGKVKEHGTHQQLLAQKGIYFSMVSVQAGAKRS
T2 sequence (P08183 whole entry): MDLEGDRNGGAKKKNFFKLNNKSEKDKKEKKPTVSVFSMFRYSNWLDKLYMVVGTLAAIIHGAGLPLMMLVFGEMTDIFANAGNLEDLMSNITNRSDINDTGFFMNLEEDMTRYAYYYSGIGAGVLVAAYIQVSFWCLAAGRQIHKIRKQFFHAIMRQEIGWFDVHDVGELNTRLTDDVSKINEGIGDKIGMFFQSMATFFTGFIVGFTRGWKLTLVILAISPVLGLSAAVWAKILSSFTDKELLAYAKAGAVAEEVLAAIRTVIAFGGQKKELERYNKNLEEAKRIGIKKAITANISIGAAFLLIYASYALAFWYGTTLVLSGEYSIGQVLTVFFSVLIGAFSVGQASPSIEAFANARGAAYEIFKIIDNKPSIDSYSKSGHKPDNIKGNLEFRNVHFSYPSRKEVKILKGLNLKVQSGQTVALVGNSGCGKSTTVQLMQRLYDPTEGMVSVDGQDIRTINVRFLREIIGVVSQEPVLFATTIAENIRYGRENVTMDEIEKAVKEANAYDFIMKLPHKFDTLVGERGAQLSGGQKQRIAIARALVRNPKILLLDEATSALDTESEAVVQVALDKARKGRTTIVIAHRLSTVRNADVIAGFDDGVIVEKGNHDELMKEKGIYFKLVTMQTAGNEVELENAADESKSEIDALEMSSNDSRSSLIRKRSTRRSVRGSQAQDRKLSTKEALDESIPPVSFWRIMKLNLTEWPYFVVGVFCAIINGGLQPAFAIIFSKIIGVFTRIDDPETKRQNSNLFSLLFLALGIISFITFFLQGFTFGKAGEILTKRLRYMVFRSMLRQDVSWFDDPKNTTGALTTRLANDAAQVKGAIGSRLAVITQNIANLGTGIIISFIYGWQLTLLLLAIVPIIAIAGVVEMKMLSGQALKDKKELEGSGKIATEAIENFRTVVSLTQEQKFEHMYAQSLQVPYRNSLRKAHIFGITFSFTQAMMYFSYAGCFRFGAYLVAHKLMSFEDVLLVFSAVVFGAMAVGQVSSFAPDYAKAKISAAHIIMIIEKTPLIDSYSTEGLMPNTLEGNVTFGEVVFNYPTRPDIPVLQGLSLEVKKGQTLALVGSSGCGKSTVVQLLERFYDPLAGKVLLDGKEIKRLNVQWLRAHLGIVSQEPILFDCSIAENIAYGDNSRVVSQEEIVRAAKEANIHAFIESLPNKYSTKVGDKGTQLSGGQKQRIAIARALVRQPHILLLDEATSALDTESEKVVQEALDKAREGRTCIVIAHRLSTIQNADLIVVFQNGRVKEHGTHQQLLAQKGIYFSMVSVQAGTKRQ

Structure (SMILES): Nc1cc(C(F)(F)F)c(-c2cc(N3CCOCC3)nc(N3CCOCC3)n2)cn1 [buparlisib]
- substrate of murine P-gp [1]: not a substrate
- substrate of human P-gp (human P-gp (ABCB1/MDR1)): not a substrate
- brain concentration compared with liver, kidney and spleen concentrations ([2]; 1 hour): slightly higher
- kidney level compared with concurrent plasma level ([2]; 1 hour): lower
- liver level compared with concurrent plasma level ([2]; 1 hour): equal
- spleen level compared with concurrent plasma level ([2]; 1 hour): lower
- differences among mouse strains in plasma and brain concentrations ([2]; 1 hour, WT vs transporter knockout mice): No differences
- Kp at 1 h ([2]; FVB, mouse, brain/plasma, intravenous, all strains (WT, Abcg2-/-, Abcb1a/b-/-, Abcb1a/b;Abcg2-/-), read-out: brain-plasma ratio): 1.5 to 2
